Assay [1] deals with Pseudomonas aeruginosa. Briefly: Antibacterial activity against Pseudomonas aeruginosa ATCC 27853 after 20 hrs. To be noted: ATCC 27853, 20 h. In kind it is functional.
Assay [2] deals with Staphylococcus aureus. The assay is described as follows: Antibacterial activity against Staphylococcus aureus ATCC 25923 at 100 ug/ml after 20 hrs. It is filed as functional, organism-based.
Assay [3] deals with Francisella tularensis subsp. holarctica. The assay is described as follows: Antibacterial activity against Francisella tularensis subsp. holarctica ATCC 29684 at 100 ug/ml after 20 hrs. In kind it is functional.
Assay [4] has as its system Escherichia coli. The assay is described as follows: Antibacterial activity against Escherichia coli ATCC 35218 at 100 ug/ml after 20 hrs. In kind it is functional, organism-based.
The test system of assay [5] is Staphylococcus aureus. Briefly: Antibacterial activity against methicillin-resistant Staphylococcus aureus Lac JE2 USA300 at 100 ug/ml after 20 hrs. It is filed as functional, organism-based.
Assay [6] concerns Yersinia pestis. The assay is described as follows: Antibacterial activity against Yersinia pestis A1122 at 100 ug/ml after 20 hrs. It is filed as functional.
In assay [7] the test system is Burkholderia cepacia. Briefly: Antibacterial activity against Burkholderia cepacia ATCC 25608 after 20 hrs. In kind it is functional.
In assay [8] the test system is Burkholderia thailandensis. Briefly: Antibacterial activity against Burkholderia thailandensis ATCC 700388 at 100 ug/ml after 20 hrs. In kind it is functional.
A further assay deals with Bacillus anthracis. Briefly: Antibacterial activity against Bacillus anthracis Sterne after 20 hrs. In kind it is functional.
Assay [9] relates to Klebsiella pneumoniae. The assay is described as follows: Antibacterial activity against Klebsiella pneumoniae ATCC BAA-1706 at 100 ug/ml after 20 hrs. In kind it is functional, organism-based.
Assay [10] deals with Burkholderia cepacia. Briefly: Antibacterial activity against Burkholderia cepacia ATCC 25608 at 100 ug/ml after 20 hrs. It is filed as functional, organism-based.
The subject of assay [11] is Pseudomonas aeruginosa. The assay is described as follows: Antibacterial activity against Pseudomonas aeruginosa ATCC 27853 at 100 ug/ml after 20 hrs. In kind it is functional, organism-based.
Assay [12] relates to Staphylococcus aureus. The assay is described as follows: Antibacterial activity against methicillin-resistant Staphylococcus aureus Lac JE2 USA300 after 20 hrs. To be noted: LAC JE2 USA300, 20 h. It is filed as functional.
Assay [13] in a line: Antibacterial activity against Francisella tularensis subsp. holarctica ATCC 29684 after 20 hrs. The settings on record: ATCC 29684, 20 h. In kind it is functional.
The subject of assay [14] is Klebsiella pneumoniae. Briefly: Antibacterial activity against Klebsiella pneumoniae ATCC BAA-1706 after 20 hrs. The settings on record: ATCC BAA-1706, 20 h. In kind it is functional.
For assay [15], the system named is Burkholderia thailandensis. Briefly: Antibacterial activity against Burkholderia thailandensis ATCC 700388 after 20 hrs. It is filed as functional.
Assay [16] has as its system Staphylococcus aureus. The assay is described as follows: Antibacterial activity against Staphylococcus aureus ATCC 25923 after 20 hrs. It is filed as functional.
Assay [17] concerns Staphylococcus aureus. The assay is described as follows: Inhibition of Staphylococcus aureus DnaG primase activity after 1 hr by HPLC analysis.
Assay [18] is described as follows: Inhibition of Bacillus anthracis Sterne 34F2 DnaG primase activity using a DNA 32-mer template. Details: species or system Bacillus anthracis str. Sterne.
The test system of assay [19] is Escherichia coli. Briefly: Antibacterial activity against Escherichia coli ATCC 35218 after 20 hrs. In kind it is functional. To be noted: ATCC 35218, 20 h.
Assay [20] has as its system Yersinia pestis. The assay is described as follows: Antibacterial activity against Yersinia pestis A1122 after 20 hrs. It is filed as functional. To be noted: A1122, 20 h.

Converted amounts (≈) assume the structure as drawn. The source made the active and inactive calls. The rule behind the calls is not given here.

For `O=C1c2cc(OCCCN3CCCCC3)ccc2-c2ccc(OCCCN3CCCCC3)cc21`, the figures for the MIC with Pseudomonas aeruginosa [1] and in the assay on Bacillus anthracis were 100 µg/mL (≈ 216 µM) and 75 µg/mL (≈ 162 µM), respectively. In addition, the result (in the assay on Staphylococcus aureus [2]; in assay [3]; in the assay on Escherichia coli [4]; in the assay on Staphylococcus aureus [5]; with Yersinia pestis [6]; in [8]) was inactive. For the same compound, the outcome in the assay with Klebsiella pneumoniae [9] was inactive. Further, the MIC (in general, the lowest concentration that inhibits growth of the organism) in the assay on Burkholderia cepacia [7] is “inactive”.
Take `C=CCOc1ccc2c(c1)C(=O)c1cc(OCCCN(C)CC=C)ccc1-2`: the result (with Staphylococcus aureus [2]; with Escherichia coli [4]; in the assay on Burkholderia cepacia [10]; with Yersinia pestis [6]; in the assay with Pseudomonas aeruginosa [11]; in assay [8]) was inactive. Besides, in the assay with Klebsiella pneumoniae [9], the outcome was inactive. For the same compound, the MIC in the assay with Staphylococcus aureus [12] was 32 µg/mL (≈ 88 µM); in assay [13] it was 50 µg/mL (≈ 138 µM); in the assay with Bacillus anthracis, 25 µg/mL (≈ 68.8 µM).
As to `O=C1c2cc(OCCCCCCCCN3CCCCC3)ccc2-c2ccc(OCCCCCCCCN3CCCCC3)cc21`, the MIC is 100 µg/mL (≈ 166 µM) with Klebsiella pneumoniae [14]; 25 µg/mL (≈ 41.5 µM) in assay [15] (ATCC 700388, 20 h); 62.5 µg/mL (≈ 104 µM) with Staphylococcus aureus [16] (ATCC 25923, 20 h); 16 µg/mL (≈ 26.5 µM) in the assay on Staphylococcus aureus [12]; 87.5 µg/mL (≈ 145 µM) against Burkholderia cepacia [7] (ATCC 25608, 20 h); 37.5 µg/mL (≈ 62.2 µM) in assay [13]. Further, in the assay on Bacillus anthracis, the MIC was determined as 17.5 µg/mL (≈ 29 µM). The outcome in the assay on Escherichia coli [4], in the assay on Yersinia pestis [6] and in the assay on Pseudomonas aeruginosa [11] was inactive.
As for `CCN(CC)CCOc1ccc2c(c1)C(=O)c1cc(OCCN(CC)CC)ccc1-2` [TILORONE], the outcome in the assay with Staphylococcus aureus [16] was inactive. Further, in the assay on Staphylococcus aureus [17], the inhibition entry is “Active”. For the same compound, half-maximal inhibition in assay [18] (IC50) required 7.1 µM.
As for `O=C1c2cc(OCCN3CCCCC3)ccc2-c2ccc(OCCN3CCCCC3)cc21`, the result (in the assay with Staphylococcus aureus [2]; in assay [3]; in the assay with Escherichia coli [4]; in the assay on Staphylococcus aureus [5]; with Yersinia pestis [6]; in the assay on Pseudomonas aeruginosa [11]) was inactive. Further, the result (in assay [8]; in the assay with Klebsiella pneumoniae [9]) was inactive. Further, the MIC is 100 µg/mL (≈ 230 µM) in the assay with Burkholderia cepacia [7] (ATCC 25608, 20 h) and 100 µg/mL (≈ 230 µM) in the assay with Bacillus anthracis.
As to `C=CCN(C)CCCCCCCCOc1ccc2c(c1)C(=O)c1cc(OCCCCCCCCN(C)CC=C)ccc1-2`, the outcome in the assay on Escherichia coli [4], in the assay on Yersinia pestis [6], with Pseudomonas aeruginosa [11] and in the assay on Klebsiella pneumoniae [9] was inactive. In addition, the minimal inhibitory concentration (MIC) in assay [15] (ATCC 700388, 20 h) was found to be 17.5 µg/mL (≈ 30.4 µM); in the assay with Staphylococcus aureus [16] (ATCC 25923, 20 h), 50 µg/mL (≈ 87 µM); in the assay on Staphylococcus aureus [12], 16 µg/mL (≈ 27.8 µM); in the assay with Burkholderia cepacia [7] (ATCC 25608, 20 h), 100 µg/mL (≈ 174 µM); in assay [13], 37.5 µg/mL (≈ 65.2 µM); in the assay with Bacillus anthracis it was 17.5 µg/mL (≈ 30.4 µM).
For the compound `C=CCN(C)CCOc1ccc2c(c1)C(=O)c1cc(OCCN(C)CC=C)ccc1-2`, the result (in the assay on Staphylococcus aureus [2]; in assay [3]; in the assay on Escherichia coli [4]; in the assay on Burkholderia cepacia [10]; with Staphylococcus aureus [5]; in the assay on Yersinia pestis [6]) was inactive. For the same compound, the result (with Pseudomonas aeruginosa [11]; in assay [8]; in the assay with Klebsiella pneumoniae [9]) was inactive. The compound further showed an MIC against Bacillus anthracis of 100 µg/mL (≈ 246 µM).
Turning to `C=CCN(C)CCCOc1ccc2c(c1)C(=O)c1cc(OCCCN(C)CC=C)ccc1-2`, the MIC came to 100 µg/mL (≈ 230 µM) with Pseudomonas aeruginosa [1]; 100 µg/mL (≈ 230 µM) in the assay on Escherichia coli [19]; 100 µg/mL (≈ 230 µM) with Burkholderia cepacia [7] (ATCC 25608, 20 h); 100 µg/mL (≈ 230 µM) in the assay with Bacillus anthracis; 100 µg/mL (≈ 230 µM) in the assay on Yersinia pestis [20]. Also, the outcome (in [3]; in the assay on Staphylococcus aureus [5]; in the assay with Klebsiella pneumoniae [9]) was inactive. Moreover, the MIC entry (in assay [15]; in the assay on Staphylococcus aureus [16]) was “inactive” each time.

The values are drawn from ChEMBL document CHEMBL3785071, “Development of potential broad spectrum antimicrobials using C2-symmetric 9-fluorenone alkyl amine” (Bioorg Med Chem Lett, 2016).
